Experimental data reported in patent US9365572B2, “PI3K and/or mTOR inhibitor” (XUANZHU PHARMA CO., LTD., priority 2012, dated 2016).

Experiments:
Assay in all cases: Kinase selectivity, Mobility shift assay
Assay type in all cases: biochemical
PKCa = PKCa (Homo sapiens (Human), UniProt P17252)
Experimental: (§1) Object: In this assay, the inhibitory activity of the test substance on the kinases listed in Table 3 was determined, and therefore the selectivity of the present compound was determined.
(§2) Except for the BRAF V600E kinase in Table 3, the Mobility shift assay was used for other kinases.
(§3) 1. Preparation of Agents:
(§4) • 1.1 1-fold kinase buffer without MnCl2: 50 mM HEPES, pH 7.5, 0.0015% Brij-35, 10 mM MgCl2, 2 mM DTT. • 1.2 1-fold kinase buffer with MnCl2: 50 mM HEPES, pH 7.5, 0.0015% Brij-35, 10 mM MgCl2, 10 mM MnCl2, 2 mM DTT. • 1.3 Termination solution: 100 mM HEPES, pH 7.5, 0.0015% Brij-35, 0.2% Coating Reagent#3, 50 mM EDTA. • 1.4 2.5-fold kinase solution: The kinase was added to the 1-fold kinase buffer to form a 2.5-fold kinase solution. • 1.5 2.5-fold substrate solution: FAM fluorescence-labelled polypeptide and ATP were added to the 1-fold kinase buffer to form a 2.5-fold substrate solution. 2. Preparation of 5-fold compound
(§5) The final test concentration of the compound was 10 μM at maximum. Firstly, a 50-fold concentration (i.e. 500 μM) was prepared with 100% DMSO. The compound was diluted with 100% DMSO by 5 folds at 5 concentrations (successively 500 μM, 100 μM, 20 μM, 4 μM, and 0.8 μM). After diluting with 1-fold kinase buffer by 10 folds, 5 μl of the samples were transferred to a 384-well reaction plate. Two negative control wells and two positive control wells were set at each line respectively. Replication was made in a 96-well plate in five concentrations of 5-fold compound. 10% DMSO was added to the positive control well, and 5 μl of EDTA (250 mM) was added to the negative control well.
(§6) • 3.1 To the 384-well reaction plate was added 5-fold compound dissolved in 10% DMSO at 5 μl/well. • 3.2 To the 384-well reaction plate was added 2.5-fold kinase solution at 10 μl/well. The plate was incubated at room temperature for 10 mins. • 3.3 To the 384-well reaction plate was added 2.5-fold substrate solution at 10 μl/well. The plate was incubated at 28° C. for a certain period. • 3.4 25 μl termination solution was added to terminate the reaction. The conversion was read from Caliper. 4. Inhibition rate calculation Inhibition rate (%)=(maximum−sample value)/(maximum−minimum)×100 • wherein: • maximum refers to the conversion at the DMSO control well, • minimum refers to the conversion at the control well without kinase. Lanthascreen Analysis Method for the BRAF V600E Kinase 1. Preparation of Agents: • 1.1 2-fold kinase solution: using 1-fold kinase buffer to prepare 2-fold kinase solution, with a final concentration of 0.35 nM of BRAFV600E; • 1.2 4-fold substrate solution: using 1-fold kinase buffer to prepare 4-fold substrate solution, with a final substrate solution concentration of 0.2 μM of Fluorescein-MAP2K1 and 1.5 μM of ATP. 2. Preparation of 4-fold compound • The final test concentration of the compound was 10 μM at maximum. Firstly, a 100-fold concentration (i.e. 1000 μM) was prepared with 100% DMSO. The compound was diluted with 100% DMSO by 5 folds at 5 concentrations. The compound series was identical to that in the Mobility Shift Assay. After diluting with 1-fold kinase buffer by 25 folds, the resulting samples were shaked and mixed evenly on a plate-shaker for 10 mins. 3. Procedure • 3.1 To the 384-well reaction plate was added 4-fold compound dissolved in 10% DMSO at 2.5 µl/well; • 3.2 To the 384-well reaction plate was added 2-fold kinase solution at 5 μl/well, and to the negative control wells were added 1-fold kinase buffer. The samples were shaked, mixed evenly, and kept standing at room temperature. • 3.3 To the 384-well reaction plate was added 4-fold substrate solution at 2.5 μl/well. The plate was reacted, shaked, mixed evenly and incubated at room temperature for one hour; • 3.4 Reaction result detection: 2-fold detection solution was prepared, with a final concentration of 2 nM of Antibody and 10 mM of EDTA. 10 μl of the detection solution was transferred to the 384-well plate to terminate the reaction. […]

EGFR = EGFR (Homo sapiens (Human), UniProt P00533)
Experimental: as §1, §2, §3, §4, §5, §6

MSK1 = MSK1 (Homo sapiens (Human), UniProt O75582)
Experimental: as §1, §2, §3, §4, §5, §6

AKT1 = AKT1 (Homo sapiens (Human), UniProt P31749)
Experimental: as §1, §2, §3, §4, §5, §6

PKD1 = PKD1 (Homo sapiens (Human), UniProt Q15139)
Experimental: as §1, §2, §3, §4, §5, §6

LYNa = LYNa (Homo sapiens (Human), UniProt P07948)
Experimental: as §1, §2, §3, §4, §5, §6

NEK2 = NEK2 (Homo sapiens (Human), UniProt P51955)
Experimental: as §1, §2, §3, §4, §5, §6

PDGFRb = PDGFRb (Homo sapiens (Human), UniProt P09619)
Experimental: as §1, §2, §3, §4, §5, §6

p38a = p38a (Homo sapiens (Human), UniProt Q16539)
Experimental: as §1, §2, §3, §4, §5, §6

PAK2 = PAK2 (Homo sapiens (Human), UniProt Q13177)
Experimental: as §1, §2, §3, §4, §5, §6

MST2 = MST2 (Homo sapiens (Human), UniProt Q13188)
Experimental: as §1, §2, §3, §4, §5, §6

JAK3 = JAK3 (Homo sapiens (Human), UniProt P52333)
Experimental: as §1, §2, §3, §4, §5, §6

SYK = SYK (Homo sapiens (Human), UniProt P43405)
Experimental: as §1, §2, §3, §4, §5, §6

IKKB = IKKB (Homo sapiens (Human), UniProt O14920)
Experimental: as §1, §2, §3, §4, §5, §6

Tie2 = Tie2 (Homo sapiens (Human), UniProt Q02763)
Experimental: as §1, §2, §3, §4, §5, §6

CAMK2a = CAMK2a (Homo sapiens (Human), UniProt Q9UQM7)
Experimental: as §1, §2, §3, §4, §5, §6

AMPKa1 = AMPKa1 (Homo sapiens (Human), UniProt Q13131)
Experimental: as §1, §2, §3, §4, §5, §6

DYRK1b = DYRK1b (Homo sapiens (Human), UniProt Q9Y463)
Experimental: as §1, §2, §3, §4, §5, §6

ZAP70 = ZAP70 (Homo sapiens (Human), UniProt P43403)
Experimental: as §1, §2, §3, §4, §5, §6

Measured: IC50

Sequence of JAK3 (P52333 whole entry, species assumed): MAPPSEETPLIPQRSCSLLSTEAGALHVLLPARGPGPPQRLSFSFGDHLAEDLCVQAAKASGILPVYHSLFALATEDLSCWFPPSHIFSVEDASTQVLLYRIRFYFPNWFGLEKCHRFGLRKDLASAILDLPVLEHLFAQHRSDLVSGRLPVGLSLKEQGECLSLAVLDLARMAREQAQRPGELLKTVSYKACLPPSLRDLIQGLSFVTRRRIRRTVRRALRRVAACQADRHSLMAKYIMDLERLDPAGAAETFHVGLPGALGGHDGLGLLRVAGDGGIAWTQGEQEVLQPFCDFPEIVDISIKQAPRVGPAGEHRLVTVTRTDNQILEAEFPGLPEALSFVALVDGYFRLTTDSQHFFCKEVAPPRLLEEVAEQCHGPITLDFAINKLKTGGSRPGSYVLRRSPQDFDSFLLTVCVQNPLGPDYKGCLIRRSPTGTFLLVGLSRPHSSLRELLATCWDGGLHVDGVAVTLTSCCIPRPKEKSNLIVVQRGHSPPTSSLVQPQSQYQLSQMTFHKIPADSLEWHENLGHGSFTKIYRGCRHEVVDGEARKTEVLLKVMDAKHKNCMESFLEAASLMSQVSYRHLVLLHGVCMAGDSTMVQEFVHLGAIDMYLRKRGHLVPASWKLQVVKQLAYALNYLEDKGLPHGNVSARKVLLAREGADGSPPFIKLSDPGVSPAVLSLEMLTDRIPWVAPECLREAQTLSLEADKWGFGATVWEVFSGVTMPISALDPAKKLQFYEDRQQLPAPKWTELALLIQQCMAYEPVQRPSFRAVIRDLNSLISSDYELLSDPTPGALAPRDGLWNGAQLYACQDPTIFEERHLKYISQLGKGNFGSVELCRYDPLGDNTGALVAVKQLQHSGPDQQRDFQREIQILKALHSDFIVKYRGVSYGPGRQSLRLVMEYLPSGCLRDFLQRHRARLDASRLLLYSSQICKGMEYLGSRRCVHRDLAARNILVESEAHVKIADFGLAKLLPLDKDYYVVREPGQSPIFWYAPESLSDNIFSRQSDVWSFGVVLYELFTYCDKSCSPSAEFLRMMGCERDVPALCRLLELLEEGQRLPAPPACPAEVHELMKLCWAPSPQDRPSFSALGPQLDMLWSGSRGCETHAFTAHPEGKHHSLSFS
Sequence of MST2 (Q13188 whole entry, species assumed): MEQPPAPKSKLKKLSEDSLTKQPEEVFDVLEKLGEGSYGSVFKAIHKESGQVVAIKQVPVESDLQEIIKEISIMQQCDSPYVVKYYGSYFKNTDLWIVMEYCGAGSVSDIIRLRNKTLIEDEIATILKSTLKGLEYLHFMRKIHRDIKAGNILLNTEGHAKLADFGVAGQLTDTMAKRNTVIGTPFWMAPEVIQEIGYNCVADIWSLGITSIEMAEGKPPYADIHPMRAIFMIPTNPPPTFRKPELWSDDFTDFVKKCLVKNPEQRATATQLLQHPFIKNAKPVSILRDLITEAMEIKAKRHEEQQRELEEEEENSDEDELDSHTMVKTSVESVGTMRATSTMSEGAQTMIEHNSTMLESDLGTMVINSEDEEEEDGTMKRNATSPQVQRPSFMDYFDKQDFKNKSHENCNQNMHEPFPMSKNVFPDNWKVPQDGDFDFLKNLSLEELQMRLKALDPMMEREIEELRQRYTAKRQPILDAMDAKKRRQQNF
Sequence of MSK1 (O75582 whole entry, species assumed): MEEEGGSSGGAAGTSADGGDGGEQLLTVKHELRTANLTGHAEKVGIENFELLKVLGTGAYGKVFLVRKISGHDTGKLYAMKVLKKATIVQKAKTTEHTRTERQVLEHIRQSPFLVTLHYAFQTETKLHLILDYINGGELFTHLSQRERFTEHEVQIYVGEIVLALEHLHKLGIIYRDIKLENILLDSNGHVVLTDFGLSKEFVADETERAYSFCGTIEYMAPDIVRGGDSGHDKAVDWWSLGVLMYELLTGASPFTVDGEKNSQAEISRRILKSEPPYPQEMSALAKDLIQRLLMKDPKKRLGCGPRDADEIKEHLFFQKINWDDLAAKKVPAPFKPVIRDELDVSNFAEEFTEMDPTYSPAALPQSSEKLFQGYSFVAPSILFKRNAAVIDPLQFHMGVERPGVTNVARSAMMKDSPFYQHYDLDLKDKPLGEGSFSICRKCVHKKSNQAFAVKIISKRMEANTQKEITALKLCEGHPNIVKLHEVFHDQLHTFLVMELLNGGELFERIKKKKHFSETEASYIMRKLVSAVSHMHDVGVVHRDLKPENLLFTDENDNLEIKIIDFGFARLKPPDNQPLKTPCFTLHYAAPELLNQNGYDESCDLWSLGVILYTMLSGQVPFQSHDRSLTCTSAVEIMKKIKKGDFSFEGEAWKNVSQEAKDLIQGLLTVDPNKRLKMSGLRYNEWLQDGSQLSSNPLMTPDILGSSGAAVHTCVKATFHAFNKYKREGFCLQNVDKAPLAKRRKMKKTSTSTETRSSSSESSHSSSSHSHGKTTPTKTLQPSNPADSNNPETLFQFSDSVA
Sequence of p38a (Q16539 whole entry): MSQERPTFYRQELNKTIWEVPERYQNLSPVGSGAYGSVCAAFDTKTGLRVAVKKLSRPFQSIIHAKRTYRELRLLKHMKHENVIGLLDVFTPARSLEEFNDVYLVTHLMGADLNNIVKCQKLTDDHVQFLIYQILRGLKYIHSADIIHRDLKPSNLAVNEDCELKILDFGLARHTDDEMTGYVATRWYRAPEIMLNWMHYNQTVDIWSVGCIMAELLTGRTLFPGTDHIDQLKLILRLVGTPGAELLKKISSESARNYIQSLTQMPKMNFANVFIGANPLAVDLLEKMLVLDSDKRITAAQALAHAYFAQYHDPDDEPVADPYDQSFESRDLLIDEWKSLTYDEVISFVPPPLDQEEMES
Sequence of PAK2 (Q13177 whole entry, species assumed): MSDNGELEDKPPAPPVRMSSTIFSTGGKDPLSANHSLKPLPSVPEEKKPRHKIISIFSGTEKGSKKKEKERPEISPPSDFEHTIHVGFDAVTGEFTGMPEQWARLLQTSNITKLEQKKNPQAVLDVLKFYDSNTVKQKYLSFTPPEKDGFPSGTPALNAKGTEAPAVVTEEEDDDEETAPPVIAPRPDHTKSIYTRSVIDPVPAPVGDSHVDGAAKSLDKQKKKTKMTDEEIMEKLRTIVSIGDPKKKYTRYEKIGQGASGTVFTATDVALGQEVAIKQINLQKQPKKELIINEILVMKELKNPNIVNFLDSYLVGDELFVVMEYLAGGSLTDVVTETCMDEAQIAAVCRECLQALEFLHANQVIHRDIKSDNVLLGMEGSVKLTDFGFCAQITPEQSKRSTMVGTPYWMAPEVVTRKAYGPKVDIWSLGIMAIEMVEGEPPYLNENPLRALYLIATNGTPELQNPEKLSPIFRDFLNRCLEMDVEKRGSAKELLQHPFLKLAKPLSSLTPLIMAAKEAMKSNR
Sequence of NEK2 (P51955 whole entry, species assumed): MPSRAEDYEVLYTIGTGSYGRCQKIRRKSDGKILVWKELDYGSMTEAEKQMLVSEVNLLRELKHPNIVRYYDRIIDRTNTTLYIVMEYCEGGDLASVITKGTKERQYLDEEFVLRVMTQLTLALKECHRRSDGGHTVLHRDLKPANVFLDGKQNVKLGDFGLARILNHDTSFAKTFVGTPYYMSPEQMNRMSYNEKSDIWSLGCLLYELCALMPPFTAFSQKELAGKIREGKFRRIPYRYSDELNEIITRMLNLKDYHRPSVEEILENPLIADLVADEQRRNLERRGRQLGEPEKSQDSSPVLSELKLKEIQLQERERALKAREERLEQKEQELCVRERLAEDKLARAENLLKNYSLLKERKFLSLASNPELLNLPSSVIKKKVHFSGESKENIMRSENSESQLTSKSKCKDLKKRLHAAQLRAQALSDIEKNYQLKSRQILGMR
Sequence of CAMK2a (Q9UQM7 whole entry, species assumed): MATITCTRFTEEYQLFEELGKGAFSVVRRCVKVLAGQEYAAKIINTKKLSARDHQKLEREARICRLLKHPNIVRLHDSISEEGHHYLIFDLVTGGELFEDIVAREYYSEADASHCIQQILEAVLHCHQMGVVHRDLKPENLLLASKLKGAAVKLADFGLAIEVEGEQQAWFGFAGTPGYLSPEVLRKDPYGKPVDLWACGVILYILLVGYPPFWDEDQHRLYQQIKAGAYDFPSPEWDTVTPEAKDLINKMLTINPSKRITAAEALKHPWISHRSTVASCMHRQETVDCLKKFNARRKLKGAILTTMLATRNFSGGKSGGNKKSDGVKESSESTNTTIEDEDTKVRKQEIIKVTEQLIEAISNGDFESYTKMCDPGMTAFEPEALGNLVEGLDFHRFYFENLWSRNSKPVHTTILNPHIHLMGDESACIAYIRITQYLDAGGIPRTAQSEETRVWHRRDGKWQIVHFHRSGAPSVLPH

Nc1ccc(-c2ccc3ncc4c(=O)[nH]c(=O)n(-c5cccc(C(F)(F)F)c5)c4c3n2)cn1 [Compound 5, 9-(6-aminopyridin-3-yl)-1-(3-(trifluoromethyl)phenyl)pyrimido[5,4-c][1,5]naphthyridine-2,4(1H,3H)-dione]
2430 nM: Tie2
2410 nM: PKD1
1370 nM: LYNa
> 10000 nM: all other assays above
